The values that follow come from patent publication EP2841543B1, “IMPROVEMENTS RELATING TO FABRIC FRESHNESS” (Unilever PLC, priority 2012, dated 2013).

A short description of the test: Production and decomposition of squalene hydroperoxides with Rose Bengal and metal ion catalyst, monitored by HPLC. On the procedure: Aldrich), 10 ml of acetone and 200 µl of Rose Bengal solution (2 mg/ml). Rose Bengal (4,5,6,7-tetrachloro-2',4',5',7'-tetraiodofluorescein) is a singlet-oxygen photobleach. Air was bubbled through the solution over the whole of the 3 hour monitoring period without the metal ion catalyst, under irradiation by a xenon lamp to simulate day-light. […] The reaction monitored by HPLC using via UV. detection at 230 nm and 260 nm and actonitrile was the mobile phase. The first HPLC measurement taken was at t=0 (before addition of Rose Bengal). Typically the squalene peak was eluted at 15 minutes, and the hydroperoxides eluted at times between 2-10 minutes. For the purpose of the experiment the hydroperoxide peaks at 3 and 5.7 minutes after starting the column were monitored for any change in relative peak height.

Where [1] appears, read: time 1.5 h, RB None, IronMeN4py Yes (5 mg catalyst added after 90 minutes).
Where [2] appears, read: time 1.0 h, RB Yes, IronMeN4py None, squalene in acetone, air, xenon lamp, 10 °C.
The mark [3] stands for this setting: time 3.0 h, RB Yes, IronMeN4py None, squalene in acetone, air, xenon lamp, 10 °C.

Turning to `CC(c1ccccn1)(c1ccccn1)N(Cc1ccccn1)Cc1ccccn1.[Cl-].[Cl-].[Fe+2]` [IronMeN4py, iron(II) N,N-bis(pyridine-2-yl-methyl)-1,1-bis(pyridine-2-yl)-1-aminoethane dichloride], under setting [1], the “Relative Peak Height at t=3 minutes” value is listed as 0 and the “Relative Peak Height at t=5.7 minutes” value was determined as 300.

Consider `O=C1OC2(c3cc(I)c(O)c(I)c3Oc3c2cc(I)c(O)c3I)c2c(Cl)c(Cl)c(Cl)c(Cl)c21` [RB, 4,5,6,7-tetrachloro-2',4',5',7'-tetraiodofluorescein], for which, under setting [2], the “Relative Peak Height at t=3 minutes” value is 600 and the “Relative Peak Height at t=5.7 minutes” value stood at 2100. Also, under setting [3], the “Relative Peak Height at t=3 minutes” value came out at 2000 and the “Relative Peak Height at t=5.7 minutes” value was 2100.
